According to patent US12570956B2, “Efficient derivation of stable pluripotent bovine embryonic stem cells” (The Regents of the University of California, priority 2018, dated 2026):
Entries after “also recorded” stand apart in the source; their conditions may differ.

Tests used:
bovine blastocyst = settings: added during in vitro pre-implantation development; cited from earlier work
[1] = tested on: bovine embryonic stem cells; test: Immunostaining of pluripotency markers in bESCs grown with or without IWR1; assay type: cell-based; settings: withdrawal of IWR1 from the culture media; four passages
Procedure: FIG. 3: Inhibition of the canonical Wnt-signaling pathway is a requirement for self-renewal of pluripotent CTFR-bESCs. Immunostaining of the core pluripotency markers POU5F1 and SOX2 in bovine embryonic stem cells grown in medium supplemented with or devoid of IWR1 (+IWR1 and −IWR1, respectively). Cells were grown for four passages in the two conditions before immunofluorescence analysis. Scale bar 100 μm.
(§1) Individual whole blastocysts or isolated ICMs were placed in separate wells of a 12-well dish seeded with a monolayer of gamma-irradiated mouse embryonic fibroblasts (MEF) and cultured in CTFR medium: a custom mTeSR-like basal medium (completely devoid of growth factors FGF2 and TGFβ) containing low fatty acid BSA (MP Biomedicals NZ), similar to basal medium in the published recipe(45) supplemented with 20 ng/ml human FGF2 and 2.5 μM IWR1 (CTFR), and incubated at 37° C. and 5% CO2.
Once established, CTFR-bESC lines were grown at 37° C. and 5% CO2 on wells containing MEF and passaged every 4-5 days at a 1:10 split ratio. To increase cell survival, optionally, ROCK inhibitor (Y-27632, 10 μM) was added to the wells 1 h prior to passage and was also added to the newly prepared wells containing MEF and fresh culture media medium during 24 hrs. Media change was done daily between passages. ROCK inhibitor is dispensable for routine maintenance and passaging of CTFR-bESCs. […]

bovine blastocysts = test: Derivation of CTFR-bESC lines from plated blastocysts/ICMs; assay type: cell-based; settings: IWR1 not present in the culture medium
Procedure: CTFR-bESCs derivation efficiency was measured as the percentage of embryos successfully establishing a CTFR-bESC line at passage 3 over the total number of embryos seeded. To optimize the CTFR-bESCs derivation efficiency, Applicants evaluated three different plating methods: whole blastocyst, mechanical isolation of the ICM by microdissection, and isolation of the ICM by immunosurgery. […] The initial outgrowths from the three methods were slightly different. The immunosurgery-derived outgrowths were smaller and more homogeneous in cell morphology than those from the other two methods.
as §1, with “recipe([…]),” for “recipe(45) supplemented with 20 ng/ml human FGF2 and 2.5 μM IWR1 (CTFR),”
Thereafter, the media was changed daily. Outgrowths (after 6-7 days in culture) were dissociated and passaged using TrypLE (Gibco, 12563011) and re-seeded in the presence of Rho Kinase (ROCK) inhibitor (Y-27632, 10 μM) onto newly prepared wells containing MEF and fresh medium (FIG. 1).

CTFR-bESCs [2] = test: Routine maintenance and passaging of CTFR-bESCs; assay type: cell-based, bovine; settings: Y-27632, 10 μM
Procedure: Once established, CTFR-bESC lines were grown at 37° C. and 5% CO2 on wells containing MEF and passaged every 4-5 days at a 1:10 split ratio. To increase cell survival, optionally, ROCK inhibitor (Y-27632, 10 μM) was added to the wells 1 h prior to passage and was also added to the newly prepared wells containing MEF and fresh culture media medium during 24 hrs. Media change was done daily between passages. ROCK inhibitor is dispensable for routine maintenance and passaging of CTFR-bESCs.

CTFR-bESCs [3] = test: Feeder-free culture of CTFR-bESCs on Matrigel or Vitronectin; assay type: cell-based, bovine; settings: medium supplemented with Activin-A (10 ng/mL), four passages
Procedure: FIG. 9. CTFR-bESCs can be cultured in feeder-free conditions. Brightfield images and immunostaining for pluripotency markers OCT4 and SOX2 of CTFR-bESCs cultured for four passages on mouse embryonic fibroblast (MEF) feeder (Control) or different extracellular matrices (Matrigel or Vitronectin) conditions, with or without the supplementation of Activin-A (10 ng/mL). Control: inactivated MEFs.
Culturing CTFR-bESCs in absence of feeder cells lead to cellular differentiation after a few passages.

bovine embryos = settings: in vitro treatment from day 5 to day 7 after fertilization; cited from earlier work

## COc1cccc(-c2cc(NCc3ccc4c(c3)OCO4)nc(N)n2)c1 [AMBMP, 2-amino-4-(3,4-(methylenedioxy)benzylamino)-6-(3-methoxyphenyl)pyrimidine]
Bovine blastocyst
  bovine blastocyst development: detrimental effects
  total number of cells in the ICM: reduces

## O=C(Nc1cccc2cccnc12)c1ccc(N2C(=O)[C@@H]3[C@H](C2=O)[C@@H]2C=C[C@H]3C2)cc1 [IWR1]
[1]
  pluripotency marker expression (POU5F1, SOX2): loss of pluripotency marker expression
Bovine blastocysts
  establishment of bESC line: no bESC lines could be established

## C[C@@H](N)[C@H]1CC[C@H](C(=O)Nc2ccncc2)CC1 [Y-27632]
CTFR-bESCs [2]
  need for ROCK inhibitor in maintenance and passaging: dispensable

## Activin-A: culture supplement used with an organic matrix to replace feeder cells
CTFR-bESCs [3]
  propagation and pluripotency marker expression (OCT4, SOX2) without feeder cells: allowed the propagation of the cells for multiple passages while maintaining expression of pluripotency markers; also recorded: maintained expression of pluripotency markers and a morphology consistent with CTFR-bESC

B1: DKK1: protein inhibitor of the canonical WNT-signaling pathway, naturally secreted by the female reproductive tract (protein, UniProt O94907 32-266, looked up)
Dickkopf-related protein 1: TLNSVLNSNAIKNLPPPLGGAAGHPGSAVSAAPGILYPGGNKYQTIDNYQPYPCAEDEECGTDEYCASPTRGGDAGVQICLACRKRRKRCMRHAMCCPGNYCKNGICVSSDQNHFRGEIEETITESFGNDHSTLDGYSRRTTLSSKMYHTKGQEGSVCLRSSDCASGLCCARHFWSKICKPVLKEGQVCTKHRRKGSHGLEIFQRCYCGEGLSCRIQKDHHQASNSSRLHTCQRH
Bovine embryos
  embryo survival after transfer to recipients: significantly improve
